# Results: patent publication US11638427B2, “Methods and compositions for altering secondary metabolites in plants” (Impello Biosciences, Inc, priority 2020, dated 2023)
# Legend:
# [1] = tested on: marijuana variety Lemon Creamsicle; assay: Foliar spray of CJ or MDJ on high-THC marijuana in greenhouse, cannabinoid analysis; assay type: in vivo, Cannabis spp.; conditions: 7.5 mM foliar spray every 14 days, four treatments
# Procedure: Applicant's previous experiments investigated the effects of jasmonate-type elicitors MeJA, MDJ, and CJ on hemp (high fiber) and high-CBD, (low-THC) varieties of Cannabis. […] Here, the effects of MDJ and CJ application on a high-THC variety in a controlled environment was investigated. High-THC, low-CBD marijuana variety “Lemon Creamsicle” (LC), was grown in a greenhouse setting. LC was used as a plant model due to its historically consistent metabolite profile in the greenhouse environment, making it a stable, known, and reliable variety.
# A four-block plant trial was implemented with a population of N=12 plants and treatment group sizes of n=4. The treatment and control groups were defined as follows: Control=water+0.1% TWEEN®-20 aqueous foliar spray, Treatment 1=[7.5 mM] CJ+0.1% TWEEN®-20 aqueous foliar spray, Treatment 2=[7.5 mM] MDJ+0.1% TWEEN®-20 aqueous foliar spray. A standardized concentration of [7.5 mM] for both CJ and MDJ applications was chosen due to its performance in Applicant's past research. All treatment solutions were prepared the day of the application in equal volumes from pre-measured quantities of the stock materials to ensure consistency, i.e., appropriate volumes of CJ or MDJ were combined with appropriate volumes of TWEEN®-20 for each experimental treatment, stored in a sealed centrifuge tube, and diluted in the appropriate amount of water immediately prior to application. Separate sprayers were used for each treatment and control sprays to avoid cross-contamination.
# All plants in the trial were produced as asexual clone stock taken from the same mother plant at the same time to ensure homogeneity. All plants were rooted and grown in accordance with the production practices typical to this greenhouse operator prior to plant selection for the experiment. Due to the layout of the cultivation system, which features immovable hydroponic “pots” that house the plant throughout the entire flowering (i.e., reproductive) phase, all plants included in the experiment were selected from a set section of the greenhouse after final transplant into the hydroponic system and grouped in a complete randomized block design accordingly.
# After defining the plants to include in the experiment, which were organized in two (2) rows of six (6) plants side-by-side in the hydroponic system, the experimental blocks were defined as groups of three plants, and a research randomizer tool (randomizer.org) was used to generate a randomized arrangement of plants in each group. Using a blocked design in this setting helped account for the immovable nature of the plants and the slight, if any, environmental differences (like natural sunlight, shading from other plants, and corner/edge effect) that existed in the small experimental area. Blocking the experimental arrangement also allowed for improved statistical analysis and resolution considering the small sample size and close proximity of the experimental plants.
# After labelling each plant in the experiment with the appropriate group label (Control, T1 [CJ], or T2 [MDJ]), the plants were allowed to grow normally between treatment applications, which were performed every 14 days for a total of four (4) treatments throughout the flowering cycle, which lasted approximately eight (8) weeks. The first treatment occurred seven (7) days after the onset of the flowering cycle, which was dictated by day-length control. Care was taken with each treatment application to minimize overspray onto non-target neighboring plants, and physical barriers were temporarily installed between plants during treatment sprays to aid in this effort. These barriers were removed following treatment sprays when the foliage was no longer visibly wet from the treatment and/or control foliar sprays. […]
# [2] = tested on: Penicillium spp.; assay: Mold growth on jasmonate-infused plates, mold isolated from pineapple; assay type: cell-based; conditions: 5 mM, 10 mM, or 20 mM in plates
# Procedure: MDJ (TCI, CAS No.: 24851-98-7) and CJ were infused into potato dextrose agar (PDA, VWR Cat No.: 90003-494) petri dishes (100×15 mm VWR, Cat No: 25384-094) at concentrations ranging from 1 mM, 4.25 mM, and 10 mM. Each treatment was prepared using a technical grade stock solution of pure chemical (CJ or MDJ) diluted with TWEEN®-20 (VWR, CAS No.: […]). Culturable oyster mushroom and seedling mold served to create fungal mycelial plugs using a sterile 1 mL pipette tip (Eppendorf, Cat No.: 022491458) held upside down. The tips were used to make circle excisions (i.e., fungal plugs) from a mycelial mat grown on PDA with no biochemical infusions. Fungal pugs were then transferred to PDA infused with varying concentrations of CJ or MDJ, and control plates (no CJ or MDJ infusion) to monitor fungal growth at room temperature over time.
# Based on the above results in Cannabis spp., additional fungi from various crops was sampled and tested. Plates comprising various concentrations of MDJ or MJ were prepared as described above.
# [3] = tested on: Fusarium ventricosum; assay: MDJ spray on cannabis 'Jack Herer' plants infected with Fusarium ventricosum; assay type: in vivo
# Procedure: To investigate the efficacy of MDJ at inhibiting Fusarium ventricosum, plants of the cannabis variety ‘Jack Herer’ were infected and treated with either 1 mM or 10 mM MDJ. Briefly, after two weeks in vegetative light cycle, ‘Jack Herer’ plants were moved to flowering cycle and sprayed with 1 mM or 10 mM methyl dihydrojasmonate on 4/12/21. After 72 hours (4/15/21) all plants were infected with Fusarium ventricosum cultured on potato dextrose agar. Plants were infected using a fungal pick to inoculate the fungal culture at the stem of the plant. No visual signs of infection were observed after two weeks, so all plants were reinfected using a PDA and liquid culture of F. ventricosum on 4/28/21 and again on 5/14/21. Plants were harvested and hung to dry on 6/11/21 and dry weights recorded on 6/16/21. After harvest, stem tissue was taken from each treatment group and plated onto potato dextrose agar. Fusarium ventricosum was reisolated from each group.
smiles,measurement,setting,value
"CCCCCC1C(=O)CCC1CC(=O)OC (centres unmarked) [MDJ, methyl dihydrojasmonate]",CBGA average relative percent increase compared to the Control group,[1],15.91%
same,THCA average relative percent increase compared to the Control group,[1],6.88%
same,Total Cannabinoids average relative percent increase compared to the Control group,[1],6.06%
same,Total THC average relative percent increase compared to the Control group,[1],5.92%
same,growth of mold isolated from pineapple,[2],effective at preventing the growth
same,flowers compared to the control,[3]; 1 mM and 10 mM spray,larger flowers
same,leaves compared to the control,[3]; 1 mM and 10 mM spray,"more yellow, wilting leaves"
same,plant biomass (dry weight) compared to the control group,[3]; 1 mM and 10 mM spray 72 hours before infection,prevention in biomass reduction
